Measured values taken from patent US9598463B2, “Mucin hypersecretion inhibitors and methods of use” (BIOMARCK PHARMACEUTICALS, LTD., priority 2005, dated 2017).
Marks after values point to notes of the source that are not given here.

What was measured:
[1] = Stability of test peptides in human CF mucus (LC/MS/MS, first order half-life); format: in vitro ADME; conditions: cerebrospinal or other body fluid, pH 7, human CF mucus
Experimental: (§1) Various test peptides in human plasma, human BALF, and CF patient mucus were analyzed to determine the susceptability of the test peptide to proteolysis in the biological fluids. […] The samples were analyzed either on the same day as received or stored at −20° C. and analyzed within the following two days.
The frozen mucus (sputum) from a CF patient was thawed and mixed with 2 volumes of 75 mM sodium acetate buffer, pH 7 with the help of a glass tissue grinder, centrifuged at 10,000×g for 10 min at 4-8° C. The pellet was re-suspended in 1 volume of the acetate buffer and centrifuged. The two supernatants were combined and used as follows. The supernatant (450 μL) was spiked with 50 μL, of 0.5 mg/mL solution of the peptide in 75 mM sodium acetate buffer at pH 7.0 and processed and analyzed as described above.
(§2) All samples were analyzed using LC/MS/MS (MDS/SCIEX, API 4000 Model). Chromatography was performed using a Phenomenex Luna C18 column, while mass spectrometry was performed using positive ion electrospray ionization.
(§3) Calibration standards were analyzed by LCMS at concentrations of 0.100 μg/mL, 1.00 μg/mL, 10.0 μg/mL, and 100 μg/mL for each peptide, with the exception of the calibration standards for peptides myr-PEPTIDE 106, PEPTIDE 106, PEPTIDE 106-NH2, PEPTIDE 106, and cyclic peptide, cyc-PEPTIDE 106, in human mucus, which were analyzed at concentrations of 0.100 μg/mL, 1.00 μg/mL, 10.0 μg/mL, and 75 μg/mL. Standards were prepared in 1% human BALF, plasma, or mucus in 50/50 water/acetonitrile mixture containing 0.2% formic acid. The instrument response values for each set of standards were fit using a 1/(concentration)^2 linear least-squares line. Sample concentrations were calculated using the slope and intercept of this line. Concentrations outside of the calibration range were determined by extrapolating the calibration curve.
(§4) Watson fits the log transformed data with a least-squares line to determine parameters such as Cmax (maximum concentration), intercept, rate constant, slope, and T1/2 (half-life). The resulting kinetic parameters were based on the linear fit, not the actual concentration values.
(§5) Time-zero calibration standards in solution were not included as part of the kinetic profiles.

[2] = Stability of test peptides in human BALF (LC/MS/MS, first order half-life); format: in vitro ADME; conditions: cerebrospinal or other body fluid, human BALF from COPD patients, 1st experiment, read-out: BALF t1/2 (1st exp.) (converted)
Experimental: as §1
Samples of BALF collected from COPD patients were obtained and frozen. The BALF samples were thawed, mixed together and centrifuged at 10,000×g for 10 min at 4-8° C. The supernatant (0.9 mL) was spiked with 0.1 mL of 0.5 mg/mL solution of the peptide in 75 mM sodium acetate buffer at pH 7.0 and processed and analyzed as described above.
as §2, §3
Duplicate calibration standards were analyzed at a concentration of 50 μg/mL for each peptide. The instrument response values for each set of standards were fit through an intercept of 0 using an unweighted, linear least-squares line. Sample concentrations were calculated using the slope and intercept of this line.
For the analysis of peptide concentration in BALF samples, one 50 μg/mL calibration standard prepared in a mixture of BALF, water, acetonitrile, and formic acid was analyzed with each sample set.
as §4, §5

[3] = test system: methacholine-induced mucin hypersecretion; test: Methacholine-induced mucin hypersecretion in ovalbumin-sensitized mouse model of asthma, BAL mucin ELISA (Balb/C mice); format: in vivo; conditions: for Mucin Secretion % control: Table II, peptides at 100 μM, 50 μL intratracheal 15 min before methacholine; for Mucin Secretion % of control: Table IV
In short: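 BP2 or Balb/C mice immunized s.c. twice weekly with 1 μg ovalbumin, aerosol ovalbumin challenge after 14 days, then aerosolized methacholine 72 h later. Anti-MUC5AC ELISA on cell-free BAL, minus non-immune antibody signal, normalized to Bradford protein; 6 mice per group.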

[4] = 1st experiment, read-out: Mucus t1/2 (1st exp.) (converted)
[5] = 2nd experiment, read-out: Mucus t1/2 (2nd exp.) (converted)

In the case of Ac-GAQFSKTAAK-OH [Ac-peptide 106], the half-life [1, 4] is reported as 33 min, the half-life [1, 5] is reported as 28.2 min and the half-life [2] is reported as 113 min. The “Mucin Secretion % control” value [3] was 21.5 % control.
With “H-GAQFSKTAAK-OH [peptide 106, GAQFSKTAAK]” the half-life [1, 4] was 13.8 min, the half-life [1, 5] was 22.2 min and the half-life [2] was 113 min. For the same substance, the “Mucin Secretion % control” value [3] was 33.8 % control, the “Mucin Secretion % of control” value ([3]; peptide 10 μM) was 64* % of control and the “Mucin Secretion % of control” value ([3]; peptide 100 μM) was 40** % of control.
